Results reported in patent US20230112418A1, “COMPOUND AND RADIOACTIVE LABELING COMPOUND” (NIHON MEDI-PHYSICS CO., LTD., priority 2020, published 2023).

Tests used:
[1] = tested on: LNCaP cells (PSMA positive); test: Evaluation of binding using cultured cells (LNCaP); format: cell-based, human; details: FIG. 4
Protocol: LNCaP cells (PSMA positive, human prostate cancer) and PC-3 cells (PSMA negative, human prostate cancer) were used. These cells were purchased from American Type Culture Collection and DS Biomedical, respectively. The LNCaP cells and the PC-3 cells were each cultured in RPMI 1640 containing antibiotics (penicillin and streptomycin) and 10% inactivated fetal bovine serum, manufactured by Nacalai Tesque, Inc. at 37° C. under 5% CO2.
The LNCaP cells and the PC-3 cells were each seeded in a 12 well plate at 4.0×10^5 cells/well, and allowed to stand at 37° C. under 5% CO2 for 48 hours.
The culture medium was removed, and an assay medium (0.5% FBS-containing RPMI 1640 medium) solution (1 mL) containing [^111In]In-PSMA-DA1 or [^111In]In-PSMA-DB (37 kBq) was added to the residue. Thereafter, the plate was allowed to stand at 37° C. under 5% CO2 for one hour. […]
The radioactivity of each of the assay medium and the cell lysate was measured with a gamma counter. Separately from this, the total protein concentration in the cell lysate was calculated using a BCA Protein Assay Kit manufactured by Thermo Fisher Scientific. A value (% ID/mg protein) obtained by dividing the percentage (% ID) of the amount of radioactivity of a sample to the amount of added radioactivity by the total protein mass was calculated for each sample.
Data was expressed as mean±standard deviation. […]

[2] = tested on: PC-3 tumor transplanted mice; test: In vivo radioactivity distribution using PC-3 tumor transplanted mice
Protocol: Animal experiments were performed in accordance with the guidelines of Kyoto University Animal Experiment Committee. Male CB17/IcrJcl-Prkdc^scid mice were purchased from CLEA Japan, Inc. The animals were raised under 12 h/12 h day/night cycle conditions and freely fed with food and water. LNCaP cells (1.0×10^7 cells/mouse) or PC-3 cells (1.0×10^7 cells/mouse) were suspended in a mixed liquid (1:1,150 μL) of PBS and Matrigel manufactured by Corning Life Sciences Inc., and the suspension was subcutaneously transplanted to the right shoulder of each of the mice under isoflurane anesthesia. Thereafter, the mice were raised for 40 to 60 days.
A saline solution (185 kBq, 100 μL) of [^111In]In-PSMA-DA1 or [^111In]In-PSMA-DB was injected into each of LNCaP or PC-3 tumor transplanted mice via the tail vein thereof (n=3 in each group). The mice were euthanized 1, 4, 24, 48, 96, and 192 hours after the injection. Thereafter, blood and organs were collected, and the mass and radioactivity of each of the organs were measured.
A result thereof is indicated as a value (% ID/g) obtained by dividing the percentage (% ID) of the amount of radioactivity with respect to the amount of injected radioactivity (injected dose) by the mass of blood or the mass of an organ (g).

O=C([O-])CN1CCN(C(CCC(=O)NCCCC[C@H](NC(=O)N[C@@H](CCC(=O)O)C(=O)O)C(=O)O)C(=O)[O-])CCN(CC(=O)[O-])CCN(C(CCC(=O)Nc2ccccc2)C(=O)[O-])CC1.[111In+3] (stereo partly drawn) [[^111In]In-PSMA-DB]
Effect of excess 2-PMPA on binding (in words) ([1]; 2-PMPA 100 μM): significantly reduced
Binding property LNCaP vs PC-3 cells (in words) [1]: higher binding property to the LNCaP cells than the PC-3 cells
Accumulation: Blood ([2]; 1 hour after injection): 1.92 ± 0.27 % ID/g
Accumulation: Brain ([2]; 1 hour after injection): 0.06 ± 0.00 % ID/g
Accumulation: Heart ([2]; 1 hour after injection): 0.49 ± 0.05 % ID/g
Accumulation: Intestinal ([2]; 1 hour after injection): 0.48 ± 0.04 % ID/g
Accumulation: Kidney ([2]; 1 hour after injection): 49.5 ± 12.6 % ID/g
Accumulation: Liver ([2]; 1 hour after injection): 0.62 ± 0.03 % ID/g
Accumulation: Lung ([2]; 1 hour after injection): 1.36 ± 0.23 % ID/g
Accumulation: Muscle ([2]; 1 hour after injection): 0.21 ± 0.08 % ID/g
Accumulation: PC-3 tumor ([2]; 1 hour after injection): 0.61 ± 0.06 % ID/g
Accumulation: Pancreas ([2]; 1 hour after injection): 0.44 ± 0.06 % ID/g
Accumulation: Spleen ([2]; 1 hour after injection): 2.57 ± 0.39 % ID/g
Accumulation: Stomach ([2]; 1 hour after injection): 0.12 ± 0.04 % ID
Accumulation in the PC-3 tumor compared with the LNCaP tumor (in words) ([2]; same time point): lower than accumulation thereof in the LNCaP tumor at the same time point
